In patent US20240109930A1, “TRIAZOLYL-METHYL SUBSTITUTED ALPHA-D-GALACTOPYRANOSIDE DERIVATIVES” (Idorsia Pharmaceuticals Ltd, priority 2021, published 2024):

Columns and labels:
[1] = target: human Gal-3 (hGal-3) (Homo sapiens (Human), UniProt P17931); test: Competitive binding assay: biotinylated hGal-3 binding to microplate-adsorbed asialofetuin (ASF); settings: IC50 values from several measurements given as geomean
Protocol: (§1) The inhibitory activity of compounds is determined in competitive binding assays. This spectrophotometric assay measures the binding of biotinylated human Gal-3 (hGal-3) or human Gal-1 (hGal-1), respectively, to a microplate-adsorbed glycoprotein, asialofetuin (ASF) (Proc Natl Acad Sci USA. 2013 Mar. 26; 110(13):5052-7.). Alternatively, and preferably, a human Gal-1 version in which all six cysteines are substituted by serines may be used.
(§2) Briefly, compounds are serially diluted in DMSO (working dilutions). ASF-coated 384well plates are supplemented with 22.8 μL/well of biotinylated hGal-3 or hGal-1 in assay buffer (i.e. 300-1000 ng/mL biotinylated hGal-3 or hGal-1) to which 1.2 μL of compound working dilutions are added and mixed.
(§3) Plates are incubated for 3 hours at 4° C., then washed with cold assay buffer (3×50 uL), incubated for 1 hour with 25 μL/well of a streptavidin-peroxidase solution (diluted in assay buffer to 80 ng/mL) at 4° C., followed by further washing steps with assay buffer (3×50 uL). Finally, 25 μL/well of ABTS substrate is added.
(§4) The calculated IC50 values may fluctuate depending on the daily assay performance. Fluctuations of this kind are known to those skilled in the art. IC50 values from several measurements are given as geomean values.

[2] = target: human Gal-1 (hGal-1) (Homo sapiens, UniProt P09382, C131S/C17S/C43S/C61S/C89S); test: Competitive binding assay: biotinylated hGal-1 binding to microplate-adsorbed asialofetuin (ASF); settings: IC50 values from several measurements given as geomean
Protocol: as §1, §2, §3, §4

Chain of human Gal-3 (hGal-3) (P17931 whole entry): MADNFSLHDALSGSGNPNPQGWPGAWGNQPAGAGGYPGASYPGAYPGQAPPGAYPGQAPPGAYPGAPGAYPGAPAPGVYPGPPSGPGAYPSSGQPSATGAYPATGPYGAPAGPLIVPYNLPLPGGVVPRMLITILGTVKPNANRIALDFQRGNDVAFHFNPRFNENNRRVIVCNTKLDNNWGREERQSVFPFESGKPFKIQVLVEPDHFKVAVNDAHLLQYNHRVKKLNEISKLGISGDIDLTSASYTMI

SMILES	IC50 [1]	IC50 [2]
CO[C@@H]1[C@@H](n2cc(-c3ccc(F)c(F)c3F)nn2)[C@@H](O)[C@@H](CO)O[C@@H]1Cc1cn(C23COC(C2)C3)nn1 [Example 3.1.44, (2R,3R,4S,5R,6R)-6-((1-(2-oxabicyclo[2.1.1]hexan-4-yl)-1H-1,2,3-triazol-4-yl)methyl)-2-(hydroxymethyl)-5-methoxy-4-(4-(2,3,4-trifluorophenyl)-1H-1,2,3-triazol-1-yl)tetrahydro-2H-pyran-3-ol]	0.04 µM	–
CO[C@@H]1[C@@H](n2cc(-c3ccc(Cl)c(F)c3F)nn2)[C@@H](O)[C@@H](CO)O[C@@H]1Cc1cn(C2CCC2(F)F)nn1 (single isomer, unassigned) [Example 2.1.63.B]	0.04 µM	2 µM
CO[C@@H]1[C@@H](n2cc(-c3ccc(C)c(F)c3F)nn2)[C@@H](O)[C@@H](CO)O[C@@H]1Cc1cn(C2CC2C(C)C)nn1 (some centres unmarked) [Ex 1.1.17.]	0.11 µM	5 µM
CO[C@@H]1[C@@H](n2cc(-c3ccc(F)c(F)c3F)nn2)[C@@H](O)[C@@H](CO)O[C@@H]1Cn1cc(C2(O)CC2)nn1 [Ex 3.2.36.]	0.13 µM	2.14 µM
CO[C@@H]1[C@@H](n2cc(-c3ccc(Cl)c(F)c3F)nn2)[C@@H](O)[C@@H](CO)O[C@@H]1Cc1cn([C@@H]2CC[C@H]2F)nn1 (single isomer, unassigned) [Example 2.1.88.D, (2R,3R,4S,5R,6R)-4-(4-(4-chloro-2,3-difluorophenyl)-1H-1,2,3-triazol-1-yl)-6-((1-((1R*,2R*)-2-fluorocyclobutyl)-1H-1,2,3-triazol-4-yl)methyl)-2-(hydroxymethyl)-5-methoxytetrahydro-2H-pyran-3-ol]	0.04 µM	2.27 µM
CO[C@@H]1[C@@H](n2cc(-c3ccc(Cl)c(F)c3F)nn2)[C@@H](O)[C@@H](CO)O[C@@H]1Cc1cn([C@@H]2CCOC[C@@H]2F)nn1 [Example 2.1.66.A, (2R,3R,4S,5R,6R)-4-(4-(4-chloro-2,3-difluorophenyl)-1H-1,2,3-triazol-1-yl)-6-((1-((3R,4R)-3-fluorotetrahydro-2H-pyran-4-yl)-1H-1,2,3-triazol-4-yl)methyl)-2-(hydroxymethyl)-5-methoxytetrahydro-2H-pyran-3-ol]	0.01 µM	0.57 µM
CO[C@@H]1[C@@H](n2cc(-c3ccc(Cl)c(F)c3F)nn2)[C@@H](O)[C@@H](CO)O[C@@H]1Cc1cn([C@@H]2CCCC2(F)F)nn1 [Example 2.1.64.A, (2R,3R,4S,5R,6R)-4-(4-(4-chloro-2,3-difluorophenyl)-1H-1,2,3-triazol-1-yl)-6-((1-((R)-2,2-difluorocyclopentyl)-1H-1,2,3-triazol-4-yl)methyl)-2-(hydroxymethyl)-5-methoxytetrahydro-2H-pyran-3-ol]	0.03 µM	0.94 µM
CO[C@@H]1[C@@H](n2cc(-c3ccc(Br)c(F)c3F)nn2)[C@@H](O)[C@@H](CO)O[C@@H]1Cc1cn(C23CC(OC)(C2)C3)nn1 [Ex 4.1.29.]	0.05 µM	3.63 µM
CO[C@@H]1[C@@H](n2cc(-c3ccc(Br)c(F)c3F)nn2)[C@@H](O)[C@@H](CO)O[C@@H]1Cc1cn(C2(CF)COC2)nn1 [Ex 4.1.52., (2R,3R,4S,5R,6R)-4-(4-(4-bromo-2,3-difluorophenyl)-1H-1,2,3-triazol-1-yl)-6-((1-(3-(fluoromethyl)oxetan-3-yl)-1H-1,2,3-triazol-4-yl)methyl)-2-(hydroxymethyl)-5-methoxytetrahydro-2H-pyran-3-ol]	0.03 µM	0.85 µM
CO[C@@H]1[C@@H](n2cc(-c3ccc(Cl)c(F)c3F)nn2)[C@@H](O)[C@@H](CO)O[C@@H]1Cc1cn(C23COC(C2)C3)nn1 [Ex 2.1.44.]	0.03 µM	2.1 µM
CO[C@@H]1[C@@H](n2cc(-c3ccc(Cl)c(F)c3F)nn2)[C@@H](O)[C@@H](CO)O[C@@H]1Cc1cn([C@@H]2CC[C@H]2F)nn1 (relative stereo) [Example 2.1.88.C, (2R,3R,4S,5R,6R)-4-(4-(4-chloro-2,3-difluorophenyl)-1H-1,2,3-triazol-1-yl)-6-((1-((1R*,2R*)-2-fluorocyclobutyl)-1H-1,2,3-triazol-4-yl)methyl)-2-(hydroxymethyl)-5-methoxytetrahydro-2H-pyran-3-ol]	–	1.68 µM
CO[C@@H]1[C@@H](n2cc(-c3ccc(Cl)c(F)c3F)nn2)[C@@H](O)[C@@H](CO)O[C@@H]1Cc1cn(C2COCCC2(F)F)nn1 (stereo partly drawn) [Example 2.1.73.A, (2R,3R,4S,5R,6R)-4-(4-(4-chloro-2,3-difluorophenyl)-1H-1,2,3-triazol-1-yl)-6-((1-(4,4-difluorotetrahydro-2H-pyran-3-yl)-1H-1,2,3-triazol-4-yl)methyl)-2-(hydroxymethyl)-5-methoxytetrahydro-2H-pyran-3-ol]	–	1.4 µM
CO[C@@H]1[C@@H](n2cc(-c3ccc(F)c(F)c3F)nn2)[C@@H](O)[C@@H](CO)O[C@@H]1Cn1cc(C2(O)CCC2)nn1 [Ex 3.2.31.]	–	0.73 µM
CO[C@@H]1[C@@H](n2cc(-c3ccc(Cl)c(F)c3F)nn2)[C@@H](O)[C@@H](CO)O[C@@H]1Cc1cn([C@@H]2CC[C@@H]2F)nn1 (relative stereo) [Example 2.1.88.A, (2R,3R,4S,5R,6R)-4-(4-(4-chloro-2,3-difluorophenyl)-1H-1,2,3-triazol-1-yl)-6-((1-((1R*,2S*)-2-fluorocyclobutyl)-1H-1,2,3-triazol-4-yl)methyl)-2-(hydroxymethyl)-5-methoxytetrahydro-2H-pyran-3-ol]	–	1.77 µM

More lines, in order of falling IC50 [2], values ahead:

IC50 [1]	IC50 [2]	SMILES
0.06 µM	2.95 µM	COCC1(n2cc(C[C@H]3O[C@H](CO)[C@H](O)[C@H](n4cc(-c5ccc(Cl)c(F)c5F)nn4)[C@H]3OC)nn2)CC1 [Ex 2.1.7.]
0.05 µM	2.57 µM	CO[C@@H]1[C@@H](n2cc(-c3ccc(C)c(F)c3F)nn2)[C@@H](O)[C@@H](CO)O[C@@H]1Cc1cn(C2(CO)CCCC2)nn1 [Ex 1.1.5.]
–	2.55 µM	CO[C@@H]1[C@@H](n2cc(-c3ccc(Br)c(F)c3F)nn2)[C@@H](O)[C@@H](CO)O[C@@H]1Cn1cc(C2(O)CCC2)nn1 [Ex 4.2.31.]
0.03 µM	2.45 µM	CO[C@@H]1[C@@H](n2cc(-c3ccc(Br)c(F)c3F)nn2)[C@@H](O)[C@@H](CO)O[C@@H]1Cc1cn([C@@H]2CC[C@@H]2F)nn1 (relative stereo) [Example 4.1.88.AB, (2R,3R,4S,5R,6R)-4-(4-(4-bromo-2,3-difluorophenyl)-1H-1,2,3-triazol-1-yl)-6-((1-((1R*,2S*)-2-fluorocyclobutyl)-1H-1,2,3-triazol-4-yl)methyl)-2-(hydroxymethyl)-5-methoxytetrahydro-2H-pyran-3-ol]
0.03 µM	1.48 µM	CO[C@@H]1[C@@H](n2cc(-c3ccc(Br)c(F)c3F)nn2)[C@@H](O)[C@@H](CO)O[C@@H]1Cc1cn(C2(C(F)(F)F)CCC2)nn1 [Ex 4.1.55., (2R,3R,4S,5R,6R)-4-(4-(4-bromo-2,3-difluorophenyl)-1H-1,2,3-triazol-1-yl)-2-(hydroxymethyl)-5-methoxy-6-((1-(1-(trifluoromethyl)cyclobutyl)-1H-1,2,3-triazol-4-yl)methyl)tetrahydro-2H-pyran-3-ol]
0.02 µM	0.87 µM	CO[C@@H]1[C@@H](n2cc(-c3ccc(Cl)c(F)c3F)nn2)[C@@H](O)[C@@H](CO)O[C@@H]1Cc1cn(C2CCOCC2(F)F)nn1 (single isomer, unassigned) [Example 2.1.89.B]
–	0.8 µM	CO[C@@H]1[C@@H](n2cc(-c3ccc(F)c(F)c3F)nn2)[C@@H](O)[C@@H](CO)O[C@@H]1Cc1cn(C23COC(C2)C3)nn1 [Ex 3.1.44.]
0.04 µM	0.78 µM	CO[C@@H]1[C@@H](n2cc(-c3ccc(Cl)c(F)c3F)nn2)[C@@H](O)[C@@H](CO)O[C@@H]1Cc1cn(C(C)(C)C(F)F)nn1 [Ex 2.1.28.]
–	0.76 µM	CO[C@@H]1[C@@H](n2cc(-c3ccc(Cl)c(F)c3F)nn2)[C@@H](O)[C@@H](CO)O[C@@H]1Cc1cn(C2(C(F)(F)F)CCOC2)nn1 (stereo partly drawn) [Example 2.1.77.A, (2R,3R,4S,5R,6R)-4-(4-(4-chloro-2,3-difluorophenyl)-1H-1,2,3-triazol-1-yl)-2-(hydroxymethyl)-5-methoxy-6-((1-(3-(trifluoromethyl)tetrahydrofuran-3-yl)-1H-1,2,3-triazol-4-yl)methyl)tetrahydro-2H-pyran-3-ol]
0.44 µM	0.72 µM	CO[C@@H]1[C@@H](n2cc(-c3ccc(F)c(F)c3F)nn2)[C@@H](O)[C@@H](CO)O[C@@H]1Cn1cc(C(C)(C)O)nn1 [Ex 3.2.34.]
0.07 µM	0.58 µM	CO[C@@H]1[C@@H](n2cc(-c3ccc(F)c(F)c3F)nn2)[C@@H](O)[C@@H](CO)O[C@@H]1Cn1cc(C2(C)COC2)nn1 [Ex 3.2.6.]
0.04 µM	0.52 µM	CO[C@@H]1[C@@H](n2cc(-c3ccc(F)c(F)c3F)nn2)[C@@H](O)[C@@H](CO)O[C@@H]1Cc1cn(C23COC(C)(C2)C3)nn1 [Ex 3.1.59.]
